Results as given in patent US7674789B2, “Compounds” (Glaxo Group Limited, priority 2005, dated 2010).

test system: influx of neutrophils to the lung in LPS-challenged rats; test: Rat LPS neutrophilia model; assay type: in vivo; conditions: intratracheal compound 15 min-24 hours before LPS aerosol (100 ug/ml, 15 min), lavage 4 hours later, in at least one of the range of conditions tested
Description: Rat LPS Neutrophilia Model
The effect of compounds on the influx of neutrophils to the lung in LPS-challenged rats is evaluated as follows. The test compound is suspended in one of the following solutions: 0.5% tween 80/PBS, 0.5% tween 80/saline, 10% EtOH/saline (with pH adjusted to 2.0, or 8.0 with HCl, or unadjusted), Saline @ pH 2.0, 6.5 or 8.0, 0.5% Tragacanth, 1% DMSO/20% Encapsin/Saline, or acidified 5% Tragacanth. The suspension process may be aided by the use of a glass homogenizer. For intratracheal administration, the animals are anesthetized with inhaled isoflurane and placed in a supine position, the trachea is intubated with a steel gavage needle (1.5 inch, 22 gauge, small ball) or a Penn-Century Microsprayer Aerosolizer (model IA-1B) and 200 ul of dosing solution is delivered. The animals are visually monitored during the recovery process, which typically occurs within two minutes.
Rats treated with compound or vehicle (15 min-24 hours pretreatment) are exposed to an LPS aerosol (100 ug/ml) for 15 min. Four hours later the rats are euthanized with pentobarbital (100 mg/kg, i.p.) and the airways are lavaged with 5 washes of 5 ml of phosphate buffered saline. The harvested cells are stained (Diffquick) and counted to determine total and differential cell data. In a typical study, macrophages represent 40-70% of the total cells, and polymorphonuclear cells 30-60% of the total cells. Inhibition of neutrophil levels relative to no compound controls is calculated based on the differential counts.
The assay has varying conditions, such as concentration, pretreat time, form of the compound (crystalline, amorphous, salts, micronised), and a wet or dry application of the compound. The data is obtained as % inhibition using a particular concentration and pretreat time.

Structure (SMILES) | inhibition of neutrophilia (neutrophil influx to the lung)
Cc1ccc(C(=O)Nc2ccc(F)cc2)cc1-c1nc(NCCCN(C)C)nc2c1CNC(=O)N2c1c(F)cccc1F [Example 42, 3-(8-(2,6-difluorophenyl)-2-{[3-(dimethylamino)propyl]amino}-7-oxo-5,6,7,8-tetrahydropyrimido[4,5-d]pyrimidin-4-yl)-N-(4-fluorophenyl)-4-methylbenzamide] | statistically significant inhibition of neutrophilia
Cc1ccc(C(=O)NCc2ccccc2)cc1-c1nc(NCCCN(C)C)nc2c1CNC(=O)N2c1c(F)cccc1F [Example 151, 3-(8-(2,6-difluorophenyl)-2-{[3-(dimethylamino)propyl]amino}-7-oxo-5,6,7,8-tetrahydropyrimido[4,5-d]pyrimidin-4-yl)-4-methyl-N-(phenylmethyl)benzamide] | statistically nonsignificant inhibition of neutrophilia
Cc1ccc(C(=O)Nc2nccs2)cc1-c1nc(NC[C@H](C)O)nc2c1CNC(=O)N2c1c(F)cccc1F [Example 134, 3-(8-(2,6-difluorophenyl)-2-{[(2S)-2-hydroxypropyl]amino}-7-oxo-5,6,7,8-tetrahydropyrimido[4,5-d]pyrimidin-4-yl)-4-methyl-N-1,3-thiazol-2-ylbenzamide] | statistically nonsignificant inhibition of neutrophilia
Cc1ccc(C(=O)NC(C)C)cc1-c1nc(N2CCC(N3CCC(C)CC3)CC2)nc2c1CNC(=O)N2c1c(F)cccc1F [Example 70, 3-[8-(2,6-difluorophenyl)-2-(4-methyl-1,4′-bipiperidin-1′-yl)-7-oxo-5,6,7,8-tetrahydropyrimido[4,5-d]pyrimidin-4-yl]-4-methyl-N-(1-methylethyl)benzamide] | statistically significant inhibition of neutrophilia
Cc1ccc(C(=O)Nc2ccc(F)cc2)cc1-c1nc(N(C)CCN(C)C)nc2c1CNC(=O)N2c1c(F)cccc1F [Example 32, 3-{8-(2,6-difluorophenyl)-2-[[2-(dimethylamino)ethyl](methyl)amino]-7-oxo-5,6,7,8-tetrahydropyrimido[4,5-d]pyrimidin-4-yl}-N-(4-fluorophenyl)-4-methylbenzamide] | statistically nonsignificant inhibition of neutrophilia
COc1ccc(NC(=O)c2ccc(C)c(-c3nc(NCCN(C)C)nc4c3CNC(=O)N4c3c(F)cccc3F)c2)cn1 [Example 140, 3-(8-(2,6-difluorophenyl)-2-{[2-(dimethylamino)ethyl]amino}-7-oxo-5,6,7,8-tetrahydropyrimido[4,5-d]pyrimidin-4-yl)-4-methyl-N-[6-(methyloxy)-3-pyridinyl]benzamide] | statistically significant inhibition of neutrophilia
CSc1ccc(NC(=O)c2ccc(C)c(-c3nc(NCCN(C)C)nc4c3CNC(=O)N4c3c(F)cccc3F)c2)cc1 [Example 127, 3-(8-(2,6-difluorophenyl)-2-{[2-(dimethylamino)ethyl]amino}-7-oxo-5,6,7,8-tetrahydropyrimido[4,5-d]pyrimidin-4-yl)-4-methyl-N-[4-(methylthio)phenyl]benzamide] | statistically significant inhibition of neutrophilia
CN(C)CCNc1nc(-c2cccc(C(=O)Nc3nccs3)c2)c2c(n1)N(c1c(F)cccc1F)C(=O)NC2 [Example 92, 3-(8-(2,6-difluorophenyl)-2-{[2-(dimethylamino)ethyl]amino}-7-oxo-5,6,7,8-tetrahydropyrimido[4,5-d]pyrimidin-4-yl)-N-1,3-thiazol-2-ylbenzamide] | statistically significant inhibition of neutrophilia
Cc1ccc(C(=O)Nc2ccc(C)c(-c3nc(N4CCC(N)CC4)nc4c3CNC(=O)N4c3c(F)cccc3F)c2)cc1F [Example 24, N-{3-[2-(4-amino-1-piperidinyl)-8-(2,6-difluorophenyl)-7-oxo-5,6,7,8-tetrahydropyrimido[4,5-d]pyrimidin-4-yl]-4-methylphenyl}-3-fluoro-4-methylbenzamide] | statistically nonsignificant inhibition of neutrophilia
Cc1ccc(C(=O)NCc2ccccc2)cc1-c1nc(N2CCN(C)CC2)nc2c1CNC(=O)N2c1c(F)cccc1F [Example 148, 3-[8-(2,6-difluorophenyl)-2-(4-methyl-1-piperazinyl)-7-oxo-5,6,7,8-tetrahydropyrimido[4,5-d]pyrimidin-4-yl]-4-methyl-N-(phenylmethyl)benzamide] | statistically nonsignificant inhibition of neutrophilia
CCN(CC)CCCNc1nc(-c2cc(C(=O)Nc3ccc(F)cc3)ccc2C)c2c(n1)N(c1c(F)cccc1F)C(=O)NC2 [Example 43, 3-[2-{[3-(diethylamino)propyl]amino}-8-(2,6-difluorophenyl)-7-oxo-5,6,7,8-tetrahydropyrimido[4,5-d]pyrimidin-4-yl]-N-(4-fluorophenyl)-4-methylbenzamide] | inactive
CCCNC(=O)c1ccc(C)c(-c2nc(N(C)CCCN(C)C)nc3c2CNC(=O)N3c2c(F)cccc2F)c1 [Example 53, 3-{8-(2,6-difluorophenyl)-2-[[3-(dimethylamino)propyl](methyl)amino]-7-oxo-5,6,7,8-tetrahydropyrimido[4,5-d]pyrimidin-4-yl}-4-methyl-N-propylbenzamide] | statistically nonsignificant inhibition of neutrophilia
CNC(=O)c1ccc(C)c(-c2nc(N3CCC(N4CCCC4)CC3)nc3c2CNC(=O)N3c2c(F)cccc2F)c1 [Example 175, 3-{8-(2,6-difluorophenyl)-7-oxo-2-[4-(1-pyrrolidinyl)-1-piperidinyl]-5,6,7,8-tetrahydropyrimido[4,5-d]pyrimidin-4-yl}-N,4-dimethylbenzamide] | inactive
Cc1ccc(C(=O)Nc2nccs2)cc1-c1nc(NCCN(C)C)nc2c1CNC(=O)N2c1c(F)cccc1F [118(c), 3-(8-(2,6-difluorophenyl)-2-{[2-(dimethylamino)ethyl]amino}-7-oxo-5,6,7,8-tetrahydropyrimido[4,5-d]pyrimidin-4-yl)-4-methyl-N-1,3-thiazol-2-ylbenzamide] | statistically significant inhibition of neutrophilia
Cc1ccc(C(=O)NC(C)C)cc1-c1nc(N(C)CCN(C)C)nc2c1CNC(=O)N2c1c(F)cccc1F [Example 36, 3-{8-(2,6-difluorophenyl)-2-[[2-(dimethylamino)ethyl](methyl)amino]-7-oxo-5,6,7,8-tetrahydropyrimido[4,5-d]pyrimidin-4-yl}-4-methyl-N-(1-methylethyl)benzamide] | statistically significant inhibition of neutrophilia
CNC(=O)c1ccc(C)c(-c2nc(NCCCN(C)C)nc3c2CNC(=O)N3c2c(F)cccc2F)c1 [Example 166, 3-(8-(2,6-difluorophenyl)-2-{[3-(dimethylamino)propyl]amino}-7-oxo-5,6,7,8-tetrahydropyrimido[4,5-d]pyrimidin-4-yl)-N,4-dimethylbenzamide] | statistically nonsignificant inhibition of neutrophilia
